Experimental data as given in patent publication US20040198774A1, “Preventive and/or remedial agent for disease attributable to arteriosclerotic activity” (priority 2001, published 2004).

Columns and labels:
[1] = system: VCAM-1 expression in human aortic endothelial cells (HAEC); assay: Expression of VCAM-1 in TNF-α stimulated human aortic endothelial cells (cell ELISA); type: cell-based; conditions: test agent 0.03 to 30 μM, TNF-α 10 ng/mL for 4 hours, FIG. 1
Procedure: An effect on the expression of adhesion molecules in vascular endothelial cells was investigated using human aortic endothelial cells (available from Clonetics Corp., USA, and hereinafter abbreviated as “HAEC”). In usual, the HAEC cells were cultured in EGM-2 medium (Clonetics) containing 2% FBS (Clonetics) in a CO2 incubator (5% CO2, 37° C.). On the first day, the HAEC cells suspended in EGM-2 medium containing 2% FBS were seeded in 96-well plates at 1×10^5 cells/well and then cultured. On the second day, after the cells were washed with PBS, the culture medium was replaced with 200 μL of EGM-2 medium containing 0.4% FBS and the test agent at various concentrations (0.03 to 30 μM) (final DMSO concentration: 0.1%) to culture the cells for 24 hours. On the third day, after the cells were washed with PBS, the culture medium was replaced with 200 μL of EGM-2 medium containing 0.4% FBS, TNF-α (10 ng/mL) and the test agent at various concentrations (0.03 to 30 μM) (final DMSO concentration: 0.1%) to stimulate the cells for 4 hours. After stimulation with TNF-α, the cells were washed with PBS, and then the amount of VCAM-1 expressed was evaluated according to the following cell ELISA method using an anti-human VCAM-1 antibody solution (PharMingen). Namely, the cells were fixed and blocked using paraformaldehyde, and then 200 μL of the anti-human VCAM-1 antibody solution (PharMingen) was added as a primary antibody to induce a primary antibody response for overnight incubation. Next day, 200 μL of HRP-labeled anti-Mouse IgG (γ+L) Goat F (Ab7)2 was added as a secondary antibody to induce a secondary antibody response for 4 hours, and then a substrate solution (ortho-phenylenediamine and hydrogen peroxide) was added. After reaction, the absorbance was measured using a microplate spectrophotometer, and the obtained absorbance was used as an index of the amount of VCAM-1 expressed.

[2] = system: MCP-1 secretion from human aortic endothelial cells (HAEC); assay: Secretion of MCP-1 from TNF-α stimulated human aortic endothelial cells (ELISA); type: cell-based; conditions: test agent 0.03 to 30 μM, TNF-α 10 ng/mL for 4 hours, FIG. 2
Procedure: An effect on the secretion of MCP-1 from vascular endothelial cells was investigated using human aortic endothelial cells (available from Clonetics Corp., USA, and hereienafter abbreviated as “HAEC”). In usual, the HAEC cells were cultured in EGM-2 medium (Clonetics) containing 2% FBS (Clonetics) in a CO2 incubator (5% CO2, 37° C.). On the first day, the HAEC cells suspended in EGM-2 medium containing 2% FBS were seeded in 96-well plates at 1×10^5 cells/well and then cultured. On the second day, after the cells were washed with PBS, the culture medium was replaced with 200 μL of EGM-2 medium containing 0.4% FBS and the test agent at various concentrations (0.03 to 30 μM) (final DMSO concentration: 0.1%) to culture the cells for 24 hours. On the third day, after the cells were washed with PBS, the culture medium was replaced with 200 μL of EGM-2 medium containing 0.4% FBS, TNF-α (10 ng/mL), and the test agent at various concentrations (0.03 to 30 μM) (final DMSO concentration: 0.1%) to stimulate the cells for 4 hours. After stimulation with TNF-α, the culture medium was collected to measure the MCP-1 concentration of the culture medium by the use of a human MCP-1 ELISA kit (Biosource).

[3] = biological target: T1, human PPARα (Homo sapiens, UniProt Q07869); assay: cell-based
T1 sequence (Q07869 239-466 limits assumed): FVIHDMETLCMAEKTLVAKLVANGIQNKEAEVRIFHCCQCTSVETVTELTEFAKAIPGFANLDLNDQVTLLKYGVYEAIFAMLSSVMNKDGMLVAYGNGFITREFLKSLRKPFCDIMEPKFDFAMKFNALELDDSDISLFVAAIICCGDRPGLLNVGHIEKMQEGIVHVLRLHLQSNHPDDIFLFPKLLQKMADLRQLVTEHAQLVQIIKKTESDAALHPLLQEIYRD
Procedure: (§1) On the second day, a transfection mixture, which contained with 9 μL of TransIT-LT1 (Takara), 2 μg of the Gal4-hPPARα (LBD) vector, the Gal4-hPPARγ (LBD) vector or the Gal4-hPPARδ (LBD) vector, 1 μg of the Gal4-Luc and 200 μL of DMEM (without FBS), was gently added to the cells at 200 μL per well. The cells were cultured all day and night to carry out gene introduction to the cells. For the investigation of the specificity of the effect on the introduced PPAR genes, gene introduction was carried out in the same manner described above using a vector without PPAR ligand-binding domain (hereinafter abbreviated as a “Gal4-control vector”). On the third day, the cells in 3 wells of the 6-well plates were combined to adjust the concentration of cells to 3×10^5 cells/mL, and the obtained one was dispensed in 96-well plates at 100 μL/well to culture the cells. On the fourth day, the culture medium was replaced with 50 μL of the DMEM (+) containing the test compound at various concentrations (0.03 to 30 μM) (final DMSO concentration: 0.1%) to culture the cells. After the cells were exposed to the compound for 32 hours, 50 μL of Luc-Screen (Applied Biosystems) was added. 70 μL of the reaction solution in each well was moved to white plates to measure luminescence emitted due to the reaction of luciferase by the use of a Microplate Luminometer (EG & G berthold, LB96P).

[4] = biological target: T2, human PPARδ (Homo sapiens, UniProt Q03181); assay: PPARδ transcription activation, Gal4-hPPARδ (LBD)/Gal4-Luc reporter in 293 T cells; type: cell-based; conditions: Gal4-hPPARδ (LBD) luciferase reporter, 32 hours exposure, 0.03 to 30 μM, read-out: EC50 values of PPARs transcription activation effect, PPARδ
T2 construct: expressed in transfected cells; host or cells: 293 T cells
T2 sequence (Q03181 211-439 limits assumed): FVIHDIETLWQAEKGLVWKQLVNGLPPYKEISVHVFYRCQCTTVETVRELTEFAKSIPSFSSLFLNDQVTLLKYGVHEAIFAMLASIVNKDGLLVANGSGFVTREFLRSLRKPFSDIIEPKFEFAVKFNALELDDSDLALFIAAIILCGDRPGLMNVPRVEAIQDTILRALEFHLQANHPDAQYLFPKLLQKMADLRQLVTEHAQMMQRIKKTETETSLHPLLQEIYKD
Procedure: as §1

[5] = biological target: T3, human PPARγ (Homo sapiens, UniProt P37231); assay: PPARγ transcription activation, Gal4-hPPARγ (LBD)/Gal4-Luc reporter in 293 T cells; type: cell-based; conditions: Gal4-hPPARγ (LBD) luciferase reporter, 32 hours exposure, 0.03 to 30 μM, read-out: EC50 values of PPARs transcription activation effect, PPARγ
T3 construct: expressed in transfected cells; host or cells: 293 T cells
T3 sequence (P37231 238-503 limits assumed): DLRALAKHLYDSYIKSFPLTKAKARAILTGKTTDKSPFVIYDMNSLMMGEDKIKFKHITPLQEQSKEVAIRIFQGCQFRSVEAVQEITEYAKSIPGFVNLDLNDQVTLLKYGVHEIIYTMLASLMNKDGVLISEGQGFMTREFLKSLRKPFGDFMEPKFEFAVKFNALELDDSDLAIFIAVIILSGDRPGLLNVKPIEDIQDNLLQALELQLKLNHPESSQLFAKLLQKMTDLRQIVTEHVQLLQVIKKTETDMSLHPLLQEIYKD

Row | Structure (SMILES) | effect on the expression of VCAM-1 induced by stimulation with TNF-α [1] | effect on the secretion of MCP-1 induced by stimulation with TNF-α [2] | EC50 [3] [nM] | EC50 [4] [nM] | EC50 [5] [µM]
1 | CN(CCOc1ccc(CC2SC(=O)NC2=O)cc1)c1ccccn1 (stereo not drawn) [Rosiglitazone] | no effect | no effect |  |  | 
2 | Cc1cc(SCc2sc(-c3ccc(C(F)(F)F)cc3)nc2C)ccc1OCC(=O)O [GW501516] | suppressed | suppressed |  |  | 
3 | O=C1NC(=O)C(Cc2ccc3cc(OCc4ccccc4F)ccc3c2)S1 (stereo not drawn) [MCC-555, 5-[6-(2-fluorobenzyloxy)-2-naphthyl]-methyl-thiazolidine-2,4-dione] |  |  | 1000 | 1200 | 6.2
4 | CCc1ccc(CCOc2ccc(CC3SC(=O)NC3=O)cc2)nc1 (stereo not drawn) [Pioglitazone] | no effect | no effect |  |  | 
5 | Cc1cccc(Nc2cc(Cl)nc(SCC(=O)O)n2)c1C [Wy-14643] | suppressed | no effect |  |  | 
6 | CC(C)OC(=O)C(C)(C)Oc1ccc(C(=O)c2ccc(Cl)cc2)cc1 [Fenofibrate] |  | no effect |  |  | 
